Data on three compounds can be found in patent EP4722207A1, “OXOISOINDOLINYL-SUBSTITUTED TETRAHYDROPYRIMIDINEDIONE DERIVATIVE AND USE THEREOF” (Gluetacs Therapeutics (Shanghai) Co., Ltd., priority 2023, dated 2024).

The target in one experiment is T1, WEE1 (Homo sapiens, UniProt P30291+Q96SW2).
T1 construct: effects of the compounds of the present disclosure on the expression of target proteins in cells; endogenous in cells; host or cells: human PBMCs (hPBMCs)
Briefly: Western-blot assay, substrate protein degradation in hPBMCs: WEE1. Format: cell-based.

A further experiment has as its target T2, IKZF1 (Homo sapiens, UniProt Q13422+Q96SW2).
T2 construct: effects of the compounds of the present disclosure on the expression of target proteins in cells; endogenous in cells; host or cells: human PBMCs (hPBMCs)
As to the kind of experiment: Western-blot assay, substrate protein degradation in hPBMCs: IKZF1. Format: cell-based.

The target of a further experiment is T3, IKZF2 (Homo sapiens, UniProt Q96SW2+Q9UKS7).
T3 construct: effects of the compounds of the present disclosure on the expression of target proteins in cells; endogenous in cells; host or cells: human PBMCs (hPBMCs)
Briefly: Western-blot assay, substrate protein degradation in hPBMCs: IKZF2. Format: cell-based.

The target in another experiment is T4, IKZF3 (Homo sapiens, UniProt Q96SW2+Q9UKT9).
T4 construct: effects of the compounds of the present disclosure on the expression of target proteins in cells; endogenous in cells; host or cells: human PBMCs (hPBMCs)
T4 sequence (Q9UKT9 whole entry): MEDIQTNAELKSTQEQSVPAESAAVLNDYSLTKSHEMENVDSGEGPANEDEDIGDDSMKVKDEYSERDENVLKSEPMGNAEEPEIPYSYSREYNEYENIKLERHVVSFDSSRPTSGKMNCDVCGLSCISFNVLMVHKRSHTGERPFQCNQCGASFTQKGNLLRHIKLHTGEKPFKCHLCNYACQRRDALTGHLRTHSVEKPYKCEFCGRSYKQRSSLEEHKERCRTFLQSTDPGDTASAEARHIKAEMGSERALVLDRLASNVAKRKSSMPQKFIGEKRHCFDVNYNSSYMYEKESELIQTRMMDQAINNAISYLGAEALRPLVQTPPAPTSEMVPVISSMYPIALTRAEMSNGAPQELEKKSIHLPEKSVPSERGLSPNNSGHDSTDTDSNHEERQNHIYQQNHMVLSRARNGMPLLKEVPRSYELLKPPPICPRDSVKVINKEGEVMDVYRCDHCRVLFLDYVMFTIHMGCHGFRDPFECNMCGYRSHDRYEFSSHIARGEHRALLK
T4 sequence (Q96SW2 whole entry): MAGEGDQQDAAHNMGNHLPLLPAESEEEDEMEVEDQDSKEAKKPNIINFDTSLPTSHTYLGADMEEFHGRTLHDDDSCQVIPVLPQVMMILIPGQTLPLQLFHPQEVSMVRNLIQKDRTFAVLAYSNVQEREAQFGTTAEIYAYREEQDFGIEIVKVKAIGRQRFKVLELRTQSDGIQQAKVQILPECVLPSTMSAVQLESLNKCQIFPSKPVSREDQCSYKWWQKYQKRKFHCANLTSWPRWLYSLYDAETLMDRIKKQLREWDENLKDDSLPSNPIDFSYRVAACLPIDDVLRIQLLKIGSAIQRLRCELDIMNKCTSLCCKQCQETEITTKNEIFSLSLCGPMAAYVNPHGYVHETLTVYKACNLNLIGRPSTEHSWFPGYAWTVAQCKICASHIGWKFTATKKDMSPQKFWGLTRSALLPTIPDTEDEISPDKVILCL
T4 sequence (Q16531 whole entry partner): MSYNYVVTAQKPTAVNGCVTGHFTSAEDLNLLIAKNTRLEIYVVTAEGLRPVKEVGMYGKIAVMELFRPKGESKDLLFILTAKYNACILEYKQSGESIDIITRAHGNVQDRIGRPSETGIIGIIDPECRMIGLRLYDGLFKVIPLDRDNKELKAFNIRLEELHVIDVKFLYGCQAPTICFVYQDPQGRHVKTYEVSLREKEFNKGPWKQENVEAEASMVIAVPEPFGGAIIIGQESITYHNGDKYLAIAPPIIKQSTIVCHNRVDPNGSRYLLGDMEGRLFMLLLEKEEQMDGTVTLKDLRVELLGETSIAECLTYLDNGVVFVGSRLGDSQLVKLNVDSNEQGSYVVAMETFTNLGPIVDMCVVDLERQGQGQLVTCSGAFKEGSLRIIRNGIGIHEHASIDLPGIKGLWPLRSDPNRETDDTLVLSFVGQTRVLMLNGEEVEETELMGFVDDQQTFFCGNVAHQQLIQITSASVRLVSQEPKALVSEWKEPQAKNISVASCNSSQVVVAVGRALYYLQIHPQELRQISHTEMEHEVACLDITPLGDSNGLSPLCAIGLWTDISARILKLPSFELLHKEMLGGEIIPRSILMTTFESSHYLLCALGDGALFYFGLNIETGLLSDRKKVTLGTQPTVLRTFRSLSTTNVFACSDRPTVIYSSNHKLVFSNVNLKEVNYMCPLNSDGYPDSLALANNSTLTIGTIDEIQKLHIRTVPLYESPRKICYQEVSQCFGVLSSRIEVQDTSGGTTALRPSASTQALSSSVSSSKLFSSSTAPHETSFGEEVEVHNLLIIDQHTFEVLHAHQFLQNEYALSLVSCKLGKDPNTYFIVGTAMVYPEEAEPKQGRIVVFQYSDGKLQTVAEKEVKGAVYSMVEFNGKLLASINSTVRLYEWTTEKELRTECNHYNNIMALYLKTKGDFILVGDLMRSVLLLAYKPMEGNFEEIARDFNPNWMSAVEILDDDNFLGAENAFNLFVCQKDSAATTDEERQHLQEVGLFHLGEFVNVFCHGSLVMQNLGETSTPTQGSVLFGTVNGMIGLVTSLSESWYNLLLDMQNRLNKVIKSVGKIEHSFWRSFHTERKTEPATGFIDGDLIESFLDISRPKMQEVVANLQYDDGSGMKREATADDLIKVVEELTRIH
Briefly: Western-blot assay, substrate protein degradation in hPBMCs: IKZF3. Format: cell-based.

The next experiment deals with T5, CK1α (Homo sapiens, UniProt P48729+Q96SW2).
T5 construct: effects of the compounds of the present disclosure on the expression of target proteins in cells; endogenous in cells; host or cells: human PBMCs (hPBMCs)
T5 sequence (P48729 whole entry): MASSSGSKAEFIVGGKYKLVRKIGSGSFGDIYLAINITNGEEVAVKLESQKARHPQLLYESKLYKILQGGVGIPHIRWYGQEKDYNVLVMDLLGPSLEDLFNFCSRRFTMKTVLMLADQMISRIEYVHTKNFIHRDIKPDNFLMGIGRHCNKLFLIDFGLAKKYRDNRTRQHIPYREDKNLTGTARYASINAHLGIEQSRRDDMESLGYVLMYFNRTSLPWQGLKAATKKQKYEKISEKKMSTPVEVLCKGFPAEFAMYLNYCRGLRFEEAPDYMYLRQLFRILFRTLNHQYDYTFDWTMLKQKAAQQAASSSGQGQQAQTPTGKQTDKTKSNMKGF
T5 sequence (Q96SW2 whole entry): as the sequence (Q96SW2 whole entry) above
T5 sequence (Q16531 whole entry partner): as the sequence (Q16531 whole entry partner) above
As to the kind of experiment: Western-blot assay, substrate protein degradation in hPBMCs: CK1α. The format is cell-based.

A further experiment concerns the target T6, GSPT1 (Homo sapiens, UniProt P15170+Q96SW2).
T6 construct: effects of the compounds of the present disclosure on the expression of target proteins in cells; endogenous in cells; host or cells: human PBMCs (hPBMCs)
As to the kind of experiment: Western-blot assay, substrate protein degradation in hPBMCs: GSPT1. The format is cell-based.

Another experiment deals with MM.1S. As to the kind of experiment: Cell viability assay (CellTiter-Meiluncell Luminescent), tumor cell proliferation, MM.1S. Particulars: Homo sapiens, MM1.S, 96 h; for inhibition at 0.01 µM: read-out: Inhibition Rate at 10 nM (%); for inhibition at 0.5 µM: read-out: Inhibition Rate at 500 nM (%).
Another experiment deals with MGC803. Briefly: Cell viability assay (CellTiter-Meiluncell Luminescent), tumor cell proliferation, MGC803. Particulars: Homo sapiens, MGC-803, 96 h, read-out: inhibitory activity (IC50, nM) against tumor cells proliferation, MGC803.
The test system of the next experiment is Jurkat. Briefly: Cell viability assay (CellTiter-Meiluncell Luminescent), tumor cell proliferation, Jurkat. The conditions noted are these: Homo sapiens, 96 h, read-out: inhibitory activity (IC50, nM) against tumor cells proliferation, Jurkat.
The target of experiment [1] is T7, human Cereblon WT GST-tagged protein (Homo sapiens, UniProt Q96SW2).
T7 construct: purchased CISBIO 64BDCRBNPEH
T7 sequence (Q96SW2 whole entry): as the sequence (Q96SW2 whole entry) above
As to the kind of experiment: CRBN-binding affinity, CEREBLON BINDING kit (HTRF). Particulars: for inhibition at 0.5 µM: read-out: Inhibition Rate at 0.5 µM (%); for inhibition at 2 µM: read-out: Inhibition Rate at 2 µM (%). An excerpt:
The CEREBLON BINDING kits (specification: 10,000 tests; product number: Catalog # 64BDCRBNPEH; CISBIO company) was used to determine the CRBN binding ability of the compounds to be tested through a HTRF method (homogeneous time-resolved fluorescence). The specific methods are as follows: • 1. […] Specifically, diluent #9 (1X) solution was used as the diluent, and multiple concentration gradients were set. […] Into the 96-well plate, the diluted test compounds and corresponding detection reagents were added, resulting in final test compound concentrations of 2 µM and 0.5 µM, respectively. […] Then, 2.5 µL of human Cereblon WT GST-tagged protein solution was added to each well. Finally, 5 µL of the thoroughly mixed Thalidomide-Re reagent and GST Eu antibody working solution were added to each of the aforementioned wells. […] The blank control wells were sequentially added with 2.5 µL of diluent #9 (1X) solution, 2.5 µL of binding buffer, and 5 µL of thoroughly mixed Thalidomide-Re reagent and GST Eu antibody working solution. • 4. […] OD 620 nm control is the absorbance value of the blank control well at an emission wavelength of 620 nm. […] OD 620 nm Std0 is the absorbance value of the solvent control well at an emission wavelength of 620 nm.

The test system of a further experiment is H292. As to the kind of experiment: Cell viability assay (CellTiter-Meiluncell Luminescent), tumor cell proliferation, H292. Particulars: Homo sapiens, NCI-H292, 96 h.
The subject of another experiment is H2228. Briefly: Cell viability assay (CellTiter-Meiluncell Luminescent), tumor cell proliferation, H2228. Particulars: Homo sapiens, NCI-H2228, 96 h; for inhibition at 0.01 µM: read-out: Inhibition Rate at 10 nM (%); for inhibition at 0.5 µM: read-out: Inhibition Rate at 500 nM (%).
The next experiment concerns MV-4-11. As to the kind of experiment: Cell viability assay (CellTiter-Meiluncell Luminescent), tumor cell proliferation, MV-4-11. Particulars: Homo sapiens, MV4-11, 96 h; for inhibition at 0.01 µM: read-out: Inhibition Rate at 10 nM (%); for inhibition at 0.5 µM: read-out: Inhibition Rate at 500 nM (%).
The subject of the next experiment is MDA-MB-231. As to the kind of experiment: Cell viability assay (CellTiter-Meiluncell Luminescent), tumor cell proliferation, MDA-MB-231. The conditions noted are these: Homo sapiens, MDA-MB-231, 96 h.
The mark [2] stands for this setting: compounds at 50 nM and 500 nM, 24 hours.
Setting [3] is: 24 hours of compound treatment, 50 nM and 500 nM.
Where [4] appears, read: read-out: Inhibition Rate at 10 nM (%).
Where [5] appears, read: read-out: Inhibition Rate at 500 nM (%).

T1 sequence (P30291 whole entry): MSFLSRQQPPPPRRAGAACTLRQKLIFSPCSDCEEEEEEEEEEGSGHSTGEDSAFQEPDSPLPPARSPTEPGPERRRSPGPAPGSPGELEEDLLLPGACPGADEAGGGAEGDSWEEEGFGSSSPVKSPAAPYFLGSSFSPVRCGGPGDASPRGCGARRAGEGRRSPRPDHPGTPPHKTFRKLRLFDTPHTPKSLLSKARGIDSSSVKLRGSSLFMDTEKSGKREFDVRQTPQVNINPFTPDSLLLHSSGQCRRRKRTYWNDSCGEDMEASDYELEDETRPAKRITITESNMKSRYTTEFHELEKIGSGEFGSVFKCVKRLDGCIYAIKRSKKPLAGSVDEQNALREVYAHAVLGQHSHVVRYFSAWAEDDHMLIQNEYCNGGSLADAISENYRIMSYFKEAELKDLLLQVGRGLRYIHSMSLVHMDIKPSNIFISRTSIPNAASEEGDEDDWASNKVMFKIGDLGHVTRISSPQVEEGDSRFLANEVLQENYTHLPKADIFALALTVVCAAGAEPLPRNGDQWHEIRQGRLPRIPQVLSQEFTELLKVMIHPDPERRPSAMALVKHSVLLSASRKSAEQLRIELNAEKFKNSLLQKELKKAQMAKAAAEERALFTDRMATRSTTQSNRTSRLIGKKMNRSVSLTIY
T1 sequence (Q96SW2 whole entry): as the sequence (Q96SW2 whole entry) above
T1 sequence (Q16531 whole entry partner): as the sequence (Q16531 whole entry partner) above
T2 sequence (Q13422 whole entry): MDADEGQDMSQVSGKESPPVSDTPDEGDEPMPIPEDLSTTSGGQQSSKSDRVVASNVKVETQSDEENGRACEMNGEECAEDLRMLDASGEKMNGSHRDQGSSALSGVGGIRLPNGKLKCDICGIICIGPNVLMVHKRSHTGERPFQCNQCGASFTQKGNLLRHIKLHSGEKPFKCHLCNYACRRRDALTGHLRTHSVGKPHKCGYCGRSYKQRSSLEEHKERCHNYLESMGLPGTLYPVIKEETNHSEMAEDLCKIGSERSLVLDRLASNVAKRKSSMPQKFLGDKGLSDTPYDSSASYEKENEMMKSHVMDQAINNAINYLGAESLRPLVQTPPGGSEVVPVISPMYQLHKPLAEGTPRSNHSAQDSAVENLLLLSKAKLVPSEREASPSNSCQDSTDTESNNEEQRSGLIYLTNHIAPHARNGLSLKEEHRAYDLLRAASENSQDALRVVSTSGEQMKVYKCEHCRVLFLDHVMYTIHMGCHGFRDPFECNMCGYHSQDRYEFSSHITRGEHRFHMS
T2 sequence (Q96SW2 whole entry): as the sequence (Q96SW2 whole entry) above
T2 sequence (Q16531 whole entry partner): as the sequence (Q16531 whole entry partner) above
T6 sequence (P15170 whole entry): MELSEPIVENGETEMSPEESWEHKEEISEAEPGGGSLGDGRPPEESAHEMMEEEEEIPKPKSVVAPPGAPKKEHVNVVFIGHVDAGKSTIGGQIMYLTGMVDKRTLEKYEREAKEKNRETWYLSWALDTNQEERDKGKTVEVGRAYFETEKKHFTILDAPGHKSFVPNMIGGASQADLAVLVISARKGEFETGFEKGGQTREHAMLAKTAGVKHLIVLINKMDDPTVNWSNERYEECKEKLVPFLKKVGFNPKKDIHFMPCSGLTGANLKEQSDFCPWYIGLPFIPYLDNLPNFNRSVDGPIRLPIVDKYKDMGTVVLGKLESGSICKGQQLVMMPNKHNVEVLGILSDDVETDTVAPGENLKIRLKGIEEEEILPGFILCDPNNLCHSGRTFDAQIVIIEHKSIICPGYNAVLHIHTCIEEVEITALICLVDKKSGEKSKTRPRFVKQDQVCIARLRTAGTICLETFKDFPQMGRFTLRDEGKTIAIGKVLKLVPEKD
T6 sequence (Q96SW2 whole entry): as the sequence (Q96SW2 whole entry) above
T6 sequence (Q16531 whole entry partner): as the sequence (Q16531 whole entry partner) above
Protocol for H2228: The tumor cells used herein were cultured in a cell culture medium listed in table 2 at 37°C in an incubator with 5% CO2. Prior to experimentation, all cell lines used were correctly identified by STR profiling, and tested negative for mycoplasma contamination using a mycoplasma detection kit through routine screenings.
On the following day, the test compounds of the present disclosure were subjected to serial dilution. […] Subsequently, 0.5 µL of the test compound dilution was transferred into the 96-well plate containing the cells, with each well containing 100 µL of cell culture medium. […] Into the 96-well plate, the diluted test compounds and corresponding detection reagents were added, resulting in final test compound concentrations of 500 nM and 10 nM, respectively. The experimental procedure is described below using the diluted 2 µM test compound as an example.
(§1) After the cells were treated with the compounds of the present disclosure for a specified period, the cell viability assay reagent was added to the culture medium according to the kit's instructions to determine cell viability. […] All controls were treated using the same procedure as the compounds of the present disclosure. The growth inhibition curves for the compounds of the present disclosure were plotted using Prism GraphPad software, and the IC50 values were calculated therefrom.
Protocol for Jurkat: (§2) On the following day, the test compounds of the present disclosure were subjected to serial dilution. […] Subsequently, 0.5 µL of the test compound dilution was transferred into the 96-well plate containing the cells, with each well containing 100 µL of cell culture medium. […] Into the 96-well plate, the diluted test compounds and corresponding detection reagents were added, resulting in final test compound concentrations of 500 nM and 10 nM, respectively.
as §1
Protocol for MGC803: as §2, §1

`Cc1cscc1C1=CCN(Cc2ccc3c(c2)CN(N2CCC(=O)NC2=O)C3=O)CC1` [GT-04872, 1-(5-((4-(4-methylthiophen-3-yl)-3,6-dihydropyridin-1(2H)-yl)methyl)-1-oxoisoindolin-2-yl)dihydropyrimidine-2,4(1H,3H)-dione]: on WEE1 (setting [2]), the “WEE1 substrate protein remaining %” value was “A ("A" is defined as 0% ≤ substrate protein remaining % ≤ 80%)”. The “IKZF1 substrate protein remaining %” value at IKZF1 (setting [2]) is reported as “A ("A" is defined as 0% ≤ substrate protein remaining % ≤ 80%)”. The “IKZF2 substrate protein remaining %” value at IKZF2 (setting [2]) is reported as “B ("B" is defined as 80%< substrate protein remaining %≤ 100%)”. Further, the “IKZF3 substrate protein remaining %” value at IKZF3 (setting [2]) is on record as “B ("B" is defined as 80%< substrate protein remaining %≤ 100%)”. Besides, the “CK1α substrate protein remaining %” value at CK1α (setting [2]) is “B ("B" is defined as 80%< substrate protein remaining %≤ 100%)”. In addition, at GSPT1 (setting [2]), the “GSPT1 substrate protein remaining %” value is “A ("A" is defined as 0% ≤ substrate protein remaining % ≤ 80%)”. Moreover, the IC50 with MM.1S (read-out: inhibitory activity (IC50, nM) against tumor cells proliferation, MM.1S) fell in the range of 10 to 50 nM; in the experiment on MGC803, 100 to 300 nM; with Jurkat it was 100 to 300 nM.
For the compound `O=C1CCN(N2Cc3cc(CN4CCN(c5ncnc6scc(-c7ccccc7)c56)CC4)ccc3C2=O)C(=O)N1` [GT-08065, 1-(1-oxo-5-((4-(5-phenylthieno[2,3-d]pyrimidin-4-yl)piperazin-1-yl)methyl)isoindolin-2-yl)dihydropyrimidine-2,4(1H,3H)-dione], the “substrate protein remaining % WEE1” value on WEE1 (setting [3]) is on record as “B (80%< substrate protein remaining %≤ 100%)”. The “substrate protein remaining % IKZF1” value on IKZF1 (setting [3]) is “B (80%< substrate protein remaining %≤ 100%)”. In addition, the “substrate protein remaining % IKZF2” value on IKZF2 (setting [3]) was “A (0% ≤ substrate protein remaining % ≤ 80%)”. For the same compound, at IKZF3 (setting [3]), the “substrate protein remaining % IKZF3” value is given as “B (80%< substrate protein remaining %≤ 100%)”. In addition, the “substrate protein remaining % CK1α” value on CK1α (setting [3]) is listed as “B (80%< substrate protein remaining %≤ 100%)”. For the same compound, the “substrate protein remaining % GSPT1” value at GSPT1 (setting [3]) is given as “B (80%< substrate protein remaining %≤ 100%)”. In addition, the inhibition at 0.5 µM in experiment [1] lay in the range of 20 to 30%; with H292 (setting [5]), 20 to 40%; with MM.1S it was 20 to 30%; in the experiment on H2228, 25 to 30%; with MV-4-11, 10 to 18%. The inhibition at 2 µM in [1] is 60 to 80%. Also, the inhibition at 0.01 µM with H292 (setting [4]) fell in the range of 20 to 40%; with MM.1S, 20 to 30%; in the experiment with H2228, 20 to 25%; in the experiment on MV-4-11, 30 to 40%.
`O=C1CCN(N2Cc3cc(CN4CC=C(c5ncnc6sc(-c7ccccc7)cc56)CC4)ccc3C2=O)C(=O)N1` [GT-08173, 1-(1-oxo-5-((4-(6-phenylthieno[2,3-d]pyrimidin-4-yl)-3,6-dihydropyridin-1(2H)-yl)methyl)isoindolin-2-yl)dihydropyrimidine-2,4(1H,3H)-dione]: the inhibition at 0.5 µM in [1] is 20 to 30%; in the experiment with MM.1S it was 80 to 100%; with H2228 it was 40 to 60%; in the experiment with MV-4-11 it was 80 to 100%; with MDA-MB-231 (setting [5]), 60 to 80%. Also, the inhibition at 2 µM in experiment [1] is 53 to 60%. Further, the inhibition at 0.01 µM in the experiment with MM.1S is -5 to 0%; in the experiment with H2228, 5 to 10%; in the experiment on MV-4-11, 10 to 18%; in the experiment with MDA-MB-231 (setting [4]), 10 to 15%.
